Patent US8796259B2, “N3-heteroaryl substituted triazoles and N5-heteroaryl substituted triazoles useful as axl inhibitors” (Rigel Pharmaceuticals, Inc., priority 2006, dated 2014)
pIC50: −log10 of the molar value.

What follows are compounds tested against T1, Axl (Homo sapiens, UniProt P30530) (assay: Phospho-Akt in-cell Western assay (inhibition of Axl activity, Axl-antibody cross-linking stimulation)). Details: Hela cells, phospho-Akt readout; compounds of formula (Ia), Table 1.
T1 construct: endogenous in cells; host or cells: HeLa cells
T1 sequence (P30530 26-894): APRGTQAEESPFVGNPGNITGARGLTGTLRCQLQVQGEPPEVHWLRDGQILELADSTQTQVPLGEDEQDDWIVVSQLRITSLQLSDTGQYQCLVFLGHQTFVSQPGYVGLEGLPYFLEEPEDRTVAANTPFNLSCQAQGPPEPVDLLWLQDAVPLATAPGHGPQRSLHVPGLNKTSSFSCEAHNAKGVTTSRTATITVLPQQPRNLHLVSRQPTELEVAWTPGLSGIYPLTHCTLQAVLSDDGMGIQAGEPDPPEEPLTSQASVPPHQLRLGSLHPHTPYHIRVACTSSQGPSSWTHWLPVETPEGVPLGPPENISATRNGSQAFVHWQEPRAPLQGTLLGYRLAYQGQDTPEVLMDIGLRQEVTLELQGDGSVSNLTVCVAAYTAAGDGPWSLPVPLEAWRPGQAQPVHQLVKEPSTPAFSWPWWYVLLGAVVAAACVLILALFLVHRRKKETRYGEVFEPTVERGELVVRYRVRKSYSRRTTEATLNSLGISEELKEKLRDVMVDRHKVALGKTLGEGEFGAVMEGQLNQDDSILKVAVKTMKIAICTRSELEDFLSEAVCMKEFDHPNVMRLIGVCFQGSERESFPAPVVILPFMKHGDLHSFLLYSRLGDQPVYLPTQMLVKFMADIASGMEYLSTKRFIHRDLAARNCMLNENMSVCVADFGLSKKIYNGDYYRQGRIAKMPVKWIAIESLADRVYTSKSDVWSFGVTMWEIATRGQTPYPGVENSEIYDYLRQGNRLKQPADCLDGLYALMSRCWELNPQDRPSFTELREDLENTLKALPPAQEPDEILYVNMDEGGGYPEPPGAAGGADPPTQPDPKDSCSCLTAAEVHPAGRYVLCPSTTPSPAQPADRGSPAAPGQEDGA
Format: cell-based
Protocol: The compounds of the invention were tested in the following assay for their ability to inhibit Axl activity.
Phospho-Akt in-Cell Western Assay
• Cell culture plate: 96 well assay plate (Corning 3610), white, clear bottom, tissue-culture treated. • Cells: Hela cells. • Starvation medium: For Axl stimulation: 0.5% FCS (fetal calf serum) in DMEM, plus Axl/Fc (extracellular domain of AXL fused to immunoglobulin Fc region) (R&D, 154-AL) 500 ng/mL. • For EGF (epidermal growth factor) stimulation: 0.5% FCS in DMEM (Dulbecco's modified Eagles medium). • Poly-L-Lysine 0.01% solution (the working solution): 10 μg/ml, dilute In PBS (phosphate buffered saline). • Axl antibody cross-linking: • 1st: Mouse anti-Axl (R&D, MAB154). • 2nd: Biotin-SP-conjugated AffiniPure goat anti-mouse IgG (H+L) (Jackson ImmunoResearch #115-065-003). • Fixing buffer: 4% formaldehyde in PBS. • Wash buffer: 0.1% TritonX-100 in PBS. • Quenching buffer: 3% H2O2, 0.1% Azide in wash buffer, Azide and hydrogen peroxide (H2O2) are added fresh. • Blocking buffer: 5% BSA in TBST (tris buffered saline plus 0.1% Tween 20). • Primary antibody: Rabbit anti-human Phospho-Akt antibody (Cell Signaling 9271): 1×250 diluted in blocking buffer. • Secondary antibody: HRP (horse radish peroxidase)-conjugated Goat anti-Rabbit secondary, stock solution: Jackson ImmunoResearch (Goat anti-Rabbit HRP, #111-035-144) 1:1 diluted in glycerol, store at −20° C. The working solution: 1×2000 dilution of stock in blocking buffer. • Chemiluminescent working solution (Pierce, 37030): SuperSignal ELISA (enzyme linked immunosorbant assay) Pico Chemiluminescent substrate. • Crystal Violet solution: Stock: 2.5% Crystal violet in methanol, filtered and kept at ambient temperature. The working solution: dilute the stock 1:20 with PBS immediately before use.
10% SDS: working solution: 5% SDS (sodium dodecylsulfate), diluted in PBS
A 96 well TC (tissue culture treated) plate was coated with 10 μg/mL poly-L-Lysine at 37° C. for 30 min, washed twice with PBS, and air-dried for 5 minutes before cells were added. Hela cells were seeded at 10,000 cells/well and the cells were starved in 100 μL starvation medium containing Axl/Fc for 24 hrs.
The cells were pre-treated with test compounds by adding 100 μL of 2× test compound to the starvation medium on the cells. The cells were incubated at 37° C. for 1 hr before stimulation.
The cells were stimulated by Axl-antibody cross-linking as follows: A 5×1st/2nd Axl antibody mixture was made (37.5 μg/mL 1st/100 μg/mL 2 nd) in starvation medium and nutated at 4° C. with thorough mixing for 1-2 hours for clustering. The resulting mix was warmed to 37° C. 50 μL of 5×Axl 1st/2nd of antibody cluster was added to the cells and the cells were incubated at 37° C. for 5 min.
After 5 minutes stimulation, the plate was flicked to remove medium and the plate was tapped onto paper towels. Formaldehyde (4.0% in PBS, 100 μL) was added to fix the cells and the cells were incubated at ambient temperature for 20 min without shaking.
The cells were washed with a plate washer buffer to remove the formaldehyde solution. The plate was flicked to removed excess wash buffer and tapped onto paper towels. Quenching buffer (100 μL) was added to each well and the cells were incubated at ambient temperature for 20 minutes without shaking.
The cells were washed with a plate washer buffer to remove the quenching buffer. Blocking buffer (100 μL) was added and the cells were incubated at ambient temperature for at least an hour with gentle shaking.
The cells were washed with a plate washer buffer and diluted primary antibody (50 μL) was added to each well (blocking buffer was added to the negative control wells instead). The plates were incubated overnight at 4° C. with gentle shaking.
The wash buffer was removed, diluted secondary antibody (100 μL) was added, and the cells were incubated at ambient temperature for 1 hour with gentle shaking. […]

Row | Compound | pIC50
1 | Cc1csc2c(-n3nc(Nc4ccc(N5CCC(N6CCN(C)CC6)CC5)nc4)nc3N)nc(Cl)nc12 [compound 22] | > 6.00
2 | COc1cc2ncnc(-n3nc(Nc4ccc(N5CCC(N6CCCC6)CC5)nc4)nc3N)c2cc1OC [compound 23, 1-(6,7-dimethoxy-quinazoline-4-yl)-N^3-(6-(4-pyrrolidin-1-ylpiperidin-1-yl)pyridine-3-yl)-1H-1,2,4-triazole-3,5-diamine] | > 6.00
3 | Cc1csc2c(-n3nc(Nc4ccc(N5CCN(C6CC7CCC6C7)CC5)nc4)nc3N)nc(Cl)nc12 (centres unmarked) [compound 24, 1-(2-chloro-7-methylthieno [3,2-d]pyrimidine-4-yl)-N^3-(6-(4-(bicyclo[2.2.1]heptan-2-yl)piperazin-1-yl)pyridin-3-yl)-1H-1,2,4-triazole-3,5-diamine] | > 6.00
4 | Cc1csc2c(-n3nc(Nc4cnc5c(c4)CC(NC(=O)CN(C)C)CC5)nc3N)nc(Cl)nc12 (centres unmarked) [compound 29, 1-(2-chloro-7-methylthieno [3,2-d]pyrimidin-4-yl)-N^3-(6-(2-(dimethyl-amino)-1-oxyethyl-amino)-5,6,7,8-tetrahydro-quinolin-3-yl)-1H-1,2,4-triazole-3,5-diamine] | > 6.00
5 | COc1cc2ncnc(-n3nc(Nc4ccc(N5CCC(CN6CCCC6)CC5)nc4)nc3N)c2cc1OC [compound 34] | > 6.00
6 | CCN(CC)CC1CCCN1c1ccc(Nc2nc(N)n(-c3ncnc4cc(OC)c(OC)cc34)n2)cn1 (centres unmarked) [compound 39, 1-(6,7-dimethoxy-quinazoline-4-yl)-N^3-(6-(2-diethyl-aminomethyl-pyrrolidin-1-yl)pyridin-3-yl)-1H-1,2,4-triazole-3,5-diamine] | > 6.00
7 | COc1cc2ncnc(-n3nc(Nc4ccc5sc(C(=O)N6CCN(CCN(C)C)CC6)cc5c4)nc3N)c2cc1OC [compound 40, 1-(6,7-dimethoxy-quinazoline-4-yl)-N^3-(2-(1-(4-(2-(dimethyl-amino)ethyl)piperazin-1-yl)oxomethyl)benzo[b]thio-phen-5-yl)-1H-1,2,4-triazole-3,5-diamine] | 5.00 to 6.00
8 | Cc1cc(Nc2nc(N)n(-c3nc(Cl)nc4c(C)csc34)n2)cnc1N1CCC(N2CCCC2)CC1 [compound 41, 1-(2-chloro-7-methylthieno [3,2-d]pyrimidin-4-yl)-N^3-(6-(4-(pyrrolidin-1-yl)piperidin-1-yl)-5-methylpyridin-3-yl)-1H-1,2,4-triazole-3,5-diamine] | > 6.00
9 | CCN(CC)C1CCN(c2ccc(Nc3nc(N)n(-c4nc(Cl)nc5c(C)csc45)n3)cn2)C1 (centres unmarked) [compound 44, 1-(2-chloro-7-methylthieno [3,2-d]pyrimidin-4-yl)-N^3-(6-(3-diethylamino-pyrrolidin-1-yl)pyridin-3-yl)-1H-1,2,4-triazole-3,5-diamine] | > 6.00

The next lines start with the values.

Row | pIC50 | Compound
10 | > 6.00 | Cc1csc2c(-n3nc(Nc4cnc5c(c4)CNCC5)nc3N)nc(Cl)nc12 [compound 25, 1-(2-chloro-7-methylthieno [3,2-d]pyrimidine-4-yl)-N^3-(5,6,7,8-tetrahydro-1,6-naphthyridin-3-yl)-1H-1,2,4-triazole-3,5-diamine]
11 | > 6.00 | COc1cc2ncnc(-n3nc(Nc4ccc(N5CCC(N6CCCCC6)CC5)nc4)nc3N)c2cc1OC [compound 27, 1-(6,7-dimethoxy-quinazoline-4-yl)-N^3-(6-(4-piperidin-1-ylpiperidin-1-yl)pyridine-3-yl)-1H-1,2,4-triazole-3,5-diamine]
12 | > 6.00 | Cc1csc2c(-n3nc(Nc4ccc(N5CCC(N6CCCCC6)CC5)nc4)nc3N)nc(Cl)nc12 [compound 28, 1-(2-chloro-7-methylthieno [3,2-d]pyrimidine-4-yl)-N^3-(6-(4-piperidin-1-ylpiperidin-1-yl)pyridine-3-yl)-1H-1,2,4-triazole-3,5-diamine]
13 | > 6.00 | Cc1csc2c(-n3nc(Nc4cnc5c(c4)CC(N)CC5)nc3N)nc(Cl)nc12 (centres unmarked) [compound 30, 1-(2-chloro-7-methylthieno [3,2-d]pyrimidin-4-yl)-N^3-(6-amino-5,6,7,8-tetrahydro-quinolin-3-yl)-1H-1,2,4-triazole-3,5-diamine]
14 | > 6.00 | CN1CCN(c2ccc(Nc3nc(N)n(-c4nccc5ccccc45)n3)cn2)CC1 [compound 31, 1-(isoquinolin-1-yl)-N^3-(6-(4-methyl-piperazin-1-yl)pyridin-3-yl)-1H-1,2,4-triazole-3,5-diamine]
15 | > 6.00 | Cc1csc2c(-n3nc(Nc4cnc5[nH]ccc5c4)nc3N)nc(Cl)nc12 [compound 32, 1-(2-chloro-7-methylthieno [3,2-d]pyrimidin-4-yl)-N^3-(1H-pyrrolo[2,3-b]pyridin-5-yl)-1H-1,2,4-triazole-3,5-diamine]
16 | > 6.00 | Cc1csc2c(-n3nc(Nc4ccc(N5CCC(CN6CCCC6)CC5)nc4)nc3N)nc(Cl)nc12 [compound 33, 1-(2-chloro-7-methylthieno [3,2-d]pyrimidin-4-yl)-N^3-(6-(4-(pyrrolidin-1-ylmethyl)piperidin-1-yl)pyridin-3-yl)-1H-1,2,4-triazole-3,5-diamine]
17 | > 6.00 | Cc1csc2c(-n3nc(Nc4ccc(N5CCC(N6CCCCCC6)CC5)nc4)nc3N)nc(Cl)nc12 [compound 35, 1-(2-chloro-7-methylthieno [3,2-d]pyrimidin-4-yl)-N^3-(6-(4-(azepan-1-yl)piperidin-1-yl)pyridin-3-yl)-1H-1,2,4-triazole-3,5-diamine]
18 | > 6.00 | CCN(CC)CC1CCCN1c1ccc(Nc2nc(N)n(-c3nc(Cl)nc4c(C)csc34)n2)cn1 (centres unmarked) [compound 38, 1-(2-chloro-7-methylthieno [3,2-d]pyrimidin-4-yl)-N^3-(6-(2-diethylamino-methyl-pyrrolidin-1-yl)pyridin-3-yl)-1H-1,2,4-triazole-3,5-diamine]
19 | > 6.00 | COc1cc2ncnc(-n3nc(Nc4cnc(N5CCC(N6CCCC6)CC5)c(C)c4)nc3N)c2cc1OC [compound 42, 1-(6,7-dimethoxy-quinazoline-4-yl)-N^3-(6-(4-(pyrrolidin-1-yl)piperidin-1-yl)-5-methylpyridin-3-yl)-1H-1,2,4-triazole-3,5-diamine]
20 | > 6.00 | Cc1cc(Nc2nc(N)n(-c3nc4ccccc4c4ccccc34)n2)cnc1N1CCC(N2CCCC2)CC1 [compound 43, 1-(phenanthridin-6-yl)-N^3-(6-(4-(pyrrolidin-1-yl)piperidin-1-yl)-5-methylpyridin-3-yl)-1H-1,2,4-triazole-3,5-diamine]
